Results published in article PMC2923189, “An Oligopeptide Transporter of Mycobacterium tuberculosis Regulates Cytokine Release and Apoptosis of Infected Macrophages” (PLoS ONE, 2010).

Columns and labels:
OppAMTB = target: T1, OppAMTB (Mycobacterium tuberculosis, UniProt P9WGU5)
T1 construct: gene oppA

[1] = target: OppA of M. tuberculosis (OppAMTB), substrate-binding polypeptide of the Rv1280c-Rv1283c peptide transporter, recombinant wild type (Mycobacterium tuberculosis) (UniProt P9WGU5); assay: radioligand binding
Chain of OppA of M. tuberculosis (OppAMTB), substrate-binding polypeptide of the Rv1280c-Rv1283c peptide transporter, recombinant wild type (Mycobacterium tuberculosis) (P9WGU5 57-591): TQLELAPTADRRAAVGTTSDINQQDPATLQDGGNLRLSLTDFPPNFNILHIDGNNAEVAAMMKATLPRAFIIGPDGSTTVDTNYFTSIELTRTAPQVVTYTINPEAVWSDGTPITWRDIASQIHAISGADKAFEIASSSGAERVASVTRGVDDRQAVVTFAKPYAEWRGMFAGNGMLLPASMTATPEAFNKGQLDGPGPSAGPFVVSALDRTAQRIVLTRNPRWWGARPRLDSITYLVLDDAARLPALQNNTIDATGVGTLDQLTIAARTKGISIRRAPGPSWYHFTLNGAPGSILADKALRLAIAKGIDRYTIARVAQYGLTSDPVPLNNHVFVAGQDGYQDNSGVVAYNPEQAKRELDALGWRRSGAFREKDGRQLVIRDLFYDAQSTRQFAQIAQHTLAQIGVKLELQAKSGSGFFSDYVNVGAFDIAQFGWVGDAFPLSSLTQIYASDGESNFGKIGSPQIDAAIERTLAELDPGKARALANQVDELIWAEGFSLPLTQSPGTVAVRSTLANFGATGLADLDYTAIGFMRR

T1 sequence (P9WGU5 57-591): as above

Compound | % GSH binding with 1 mM competitor (OppAMTB) | amount bound at 1 mM GSH (pmol GSH/mg protein) [1]
N[C@@H](CS)C(=O)NCC(=O)O [cys-gly] | dipeptide glu-cys was a more efficient competitor of GSH binding than the peptide cys-gly | –
N[C@@H](CCC(=O)N[C@@H](CS)C(=O)O)C(=O)O [glu-cys] | dipeptide glu-cys was a more efficient competitor of GSH binding than the peptide cys-gly | –
glutathione (tripeptide) | – | 146
